Measurements published in PMC5218480 (PLoS ONE, 2017).

System: MV-4-11 cells
Assay: Gene expression microarray analysis (Affymetrix PrimeView) and GSEA
Type: cell-based, human
Parameters: RFU PODN (11730768_x_at) / Fold change /veh PODN (11730768_x_at) / RFU LINC00158 (11744669_a_at) / Fold change /veh LINC00158 (11744669_a_at) / RFU DUSP10 (11751237_a_at) / Fold change /veh DUSP10 (11751237_a_at) / RFU ID3 (11757404_x_at) / Fold change /veh ID3 (11757404_x_at) / RFU PLEKHG5 (11737974_s_at) / Fold change /veh PLEKHG5 (11737974_s_at) / RFU LRRC4B (11730491_at) / Fold change /veh LRRC4B (11730491_at) / RFU GIMAP4 (11747438_a_at) / Fold change /veh GIMAP4 (11747438_a_at) / RFU KRT8 (11758183_x_at) / Fold change /veh KRT8 (11758183_x_at) / RFU CNN1 (11734310_a_at) / Fold change /veh CNN1 (11734310_a_at) / RFU VPS37D (11726825_at) / Fold change /veh VPS37D (11726825_at) / RFU C10orf10 (11716522_x_at) / Fold change /veh C10orf10 (11716522_x_at) / RFU KIR2DL2 /// KIR2DL4 /// KIR2DL5A /// KIR2DL5B /// KIR2DS1 /// KIR2DS2 /// KIR2DS3 /// KIR2DS4 /// KIR3DL3 /// KIR3DL3 /// KIR3DS1 (11738374_at) / Fold change /veh KIR2DL2 /// KIR2DL4 /// KIR2DL5A /// KIR2DL5B /// KIR2DS1 /// KIR2DS2 /// KIR2DS3 /// KIR2DS4 /// KIR3DL3 /// KIR3DL3 /// KIR3DS1 (11738374_at) / RFU C1QL1 (11718748_at) / Fold change /veh C1QL1 (11718748_at) / RFU TMPRSS4 (11747572_a_at) / Fold change /veh TMPRSS4 (11747572_a_at) / RFU HAMP (11756126_x_at) / Fold change /veh HAMP (11756126_x_at) / RFU RNFT2 (11725882_a_at) / Fold change /veh RNFT2 (11725882_a_at) / RFU NR4A2 (11747474_a_at) / Fold change /veh NR4A2 (11747474_a_at) / RFU ABCC12 (11746883_a_at) / Fold change /veh ABCC12 (11746883_a_at) / RFU TMEM136 (11760407_x_at) / Fold change /veh TMEM136 (11760407_x_at) / RFU CLDN22 /// WWC2 (11732394_at) / Fold change /veh CLDN22 /// WWC2 (11732394_at) / RFU HLA-DPB1 (11760878_x_at) / Fold change /veh HLA-DPB1 (11760878_x_at) / RFU SPINT1 (11716480_a_at) / Fold change /veh SPINT1 (11716480_a_at) / RFU GAP43 (11754022_s_at) / Fold change /veh GAP43 (11754022_s_at) / RFU A4GNT (11735810_at) / Fold change /veh A4GNT (11735810_at) / RFU PRB3 (11715151_x_at) / Fold change /veh PRB3 (11715151_x_at) / RFU TUBB4B (11761932_at) / Fold change /veh TUBB4B (11761932_at) / RFU CAPN14 (11732068_a_at) / Fold change /veh CAPN14 (11732068_a_at) / RFU TMCC2 (11721928_a_at) / Fold change /veh TMCC2 (11721928_a_at) / RFU IRGQ (11745062_a_at) / Fold change /veh IRGQ (11745062_a_at) / RFU FAM174B (11720279_a_at) / Fold change /veh FAM174B (11720279_a_at) / RFU TMPRSS4 (11748680_a_at) / Fold change /veh TMPRSS4 (11748680_a_at) / RFU FAM212B (11763350_a_at) / Fold change /veh FAM212B (11763350_a_at) / RFU PLEKHG5 (11743358_a_at) / Fold change /veh PLEKHG5 (11743358_a_at) / RFU ZSCAN30 (11745921_a_at) / Fold change /veh ZSCAN30 (11745921_a_at) / RFU CMKLR1 (11741424_a_at) / Fold change /veh CMKLR1 (11741424_a_at) / RFU LOC101060620 /// MAPK8IP1 (11723275_at) / Fold change /veh LOC101060620 /// MAPK8IP1 (11723275_at) / RFU SPTSSB (11747773_x_at) / Fold change /veh SPTSSB (11747773_x_at) / RFU PRSS12 (11739890_at) / Fold change /veh PRSS12 (11739890_at) / RFU BIN1 (11741810_x_at) / Fold change /veh BIN1 (11741810_x_at) / RFU WNT11 (11732464_a_at) / Fold change /veh WNT11 (11732464_a_at) / RFU C10orf10 (11716521_a_at) / Fold change /veh C10orf10 (11716521_a_at) / RFU C5orf56 (11738089_at) / Fold change /veh C5orf56 (11738089_at) / RFU CYB561 (11721691_x_at) / Fold change /veh CYB561 (11721691_x_at) / RFU ANKRD19P (11752326_a_at) / Fold change /veh ANKRD19P (11752326_a_at) / RFU OR2T12 /// OR2T33 /// OR2T8 (11738714_s_at) / Fold change /veh OR2T12 /// OR2T33 /// OR2T8 (11738714_s_at) / RFU VCAN (11748164_a_at) / Fold change /veh VCAN (11748164_a_at) / RFU JSRP1 (11732532_at) / Fold change /veh JSRP1 (11732532_at) / RFU KRTAP10-11 (11738290_x_at) / Fold change /veh KRTAP10-11 (11738290_x_at) / RFU MYO3A (11730013_a_at) / Fold change /veh MYO3A (11730013_a_at) / RFU EBF3 (11725865_a_at) / Fold change /veh EBF3 (11725865_a_at) / RFU CAMK2N1 (11719241_x_at) / Fold change /veh CAMK2N1 (11719241_x_at) / RFU C5orf56 (11738088_a_at) / Fold change /veh C5orf56 (11738088_a_at) / RFU OLFML3 (11715873_a_at) / Fold change /veh OLFML3 (11715873_a_at) / RFU LOC100653217 /// NTM (11731650_a_at) / Fold change /veh LOC100653217 /// NTM (11731650_a_at) / RFU MAPK11 (11762145_a_at) / Fold change /veh MAPK11 (11762145_a_at) / RFU FIZ1 (11724087_x_at) / Fold change /veh FIZ1 (11724087_x_at) / RFU OASL (11726364_x_at) / Fold change /veh OASL (11726364_x_at) / RFU SOX15 (11748057_x_at) / Fold change /veh SOX15 (11748057_x_at) / RFU CD79A (11719716_a_at) / Fold change /veh CD79A (11719716_a_at) / RFU HIST1H1D (11736915_at) / Fold change /veh HIST1H1D (11736915_at) / RFU CASKIN2 (11723855_a_at) / Fold change /veh CASKIN2 (11723855_a_at) / RFU LOC730098 (11760151_x_at) / Fold change /veh LOC730098 (11760151_x_at) / RFU OR4N2 (11742367_at) / Fold change /veh OR4N2 (11742367_at) / RFU PRRT2 (11749266_a_at) / Fold change /veh PRRT2 (11749266_a_at) / RFU SNX32 (11753110_a_at) / Fold change /veh SNX32 (11753110_a_at) / RFU CDHR5 (11726645_a_at) / Fold change /veh CDHR5 (11726645_a_at) / RFU RCAN1 (11760418_a_at) / Fold change /veh RCAN1 (11760418_a_at) / RFU FAM167A (11723789_a_at) / Fold change /veh FAM167A (11723789_a_at) / RFU FAM26E (11764081_at) / Fold change /veh FAM26E (11764081_at) / RFU ISYNA1 (11749810_s_at) / Fold change /veh ISYNA1 (11749810_s_at) / RFU ACY1 (11761880_at) / Fold change /veh ACY1 (11761880_at) / RFU 11764098_at / Fold change /veh 11764098_at / RFU SAMD14 (11745864_x_at) / Fold change /veh SAMD14 (11745864_x_at) / RFU NPB (11741838_a_at) / Fold change /veh NPB (11741838_a_at) / RFU TMPRSS6 (11731388_a_at) / Fold change /veh TMPRSS6 (11731388_a_at) / RFU KRTAP10-2 (11738614_at) / Fold change /veh KRTAP10-2 (11738614_at) / RFU ARHGAP8 /// PRR5-ARHGAP8 (11727945_x_at) / Fold change /veh ARHGAP8 /// PRR5-ARHGAP8 (11727945_x_at) / RFU KRTAP5-7 /// NADSYN1 (11734609_at) / Fold change /veh KRTAP5-7 /// NADSYN1 (11734609_at) / RFU RASL12 (11751679_a_at) / Fold change /veh RASL12 (11751679_a_at) / RFU CDKN2B (11736163_a_at) / Fold change /veh CDKN2B (11736163_a_at) / RFU PRF1 (11729649_at) / Fold change /veh PRF1 (11729649_at) / RFU, ZNF638 /// ZNF638-IT1 / Fold change vs veh, ZNF638 /// ZNF638-IT1 / RFU, PANK3 / Fold change vs veh, PANK3 / RFU, SH3YL1 / Fold change vs veh, SH3YL1 / RFU, ZEB2 / Fold change vs veh, ZEB2 / RFU, NRIP1 / Fold change vs veh, NRIP1 / RFU, PTTG1IP / Fold change vs veh, PTTG1IP / RFU, CAPN2 / Fold change vs veh, CAPN2 / RFU, MED14 / Fold change vs veh, MED14 / RFU, SNORA58 / Fold change vs veh, SNORA58 / RFU, C1orf63 / Fold change vs veh, C1orf63 / RFU, LRRFIP1 / Fold change vs veh, LRRFIP1 / RFU, NDUFAF7 / Fold change vs veh, NDUFAF7 / RFU, SLC12A2 / Fold change vs veh, SLC12A2 / RFU, IBTK / Fold change vs veh, IBTK / RFU, ESF1 / Fold change vs veh, ESF1 / Fold change vs veh, TMEM50B / RFU, TAOK1 / Fold change vs veh, TAOK1 / RFU, ACBD3 / Fold change vs veh, ACBD3 / RFU, TMA16 / Fold change vs veh, TMA16 / RFU, RWDD3 / Fold change vs veh, RWDD3 / RFU, BCAT1 / Fold change vs veh, BCAT1 / RFU, EDEM3 / Fold change vs veh, EDEM3 / RFU, TMEM33 / Fold change vs veh, TMEM33 / RFU, WDR75 / Fold change vs veh, WDR75 / RFU, AHCTF1 / Fold change vs veh, AHCTF1 / RFU, TFRC / Fold change vs veh, TFRC / RFU, ZDHHC17 / Fold change vs veh, ZDHHC17 / RFU, NOM1 / Fold change vs veh, NOM1 / RFU, ARL8B / Fold change vs veh, ARL8B / RFU, ZBTB11 / Fold change vs veh, ZBTB11 / RFU, TAMM41 / Fold change vs veh, TAMM41 / RFU, KIAA1704 /// LOC100996395 / Fold change vs veh, KIAA1704 /// LOC100996395 / RFU, ING1 / Fold change vs veh, ING1 / RFU, TRMT61B / Fold change vs veh, TRMT61B / RFU, FUBP3 / Fold change vs veh, FUBP3 / RFU, TP53 / Fold change vs veh, TP53 / RFU, TNKS2 / Fold change vs veh, TNKS2 / RFU, ZFP14 / Fold change vs veh, ZFP14 / RFU, ACTR2 / Fold change vs veh, ACTR2 / RFU, PPP3R1 / Fold change vs veh, PPP3R1 / RFU, PIK3R1 / Fold change vs veh, PIK3R1 / RFU, HNRNPA1 / Fold change vs veh, HNRNPA1 / RFU, RNF170 / Fold change vs veh, RNF170 / RFU, ZNF28 / Fold change vs veh, ZNF28 / RFU, RNGTT / Fold change vs veh, RNGTT / RFU, OGT / Fold change vs veh, OGT / RFU, BRD1 / Fold change vs veh, BRD1 / RFU, MARS / Fold change vs veh, MARS / RFU, ZNF655 / Fold change vs veh, ZNF655 / RFU, FAHD1 / Fold change vs veh, FAHD1 / RFU, BDP1 / Fold change vs veh, BDP1 / RFU, LRRCC1 / Fold change vs veh, LRRCC1 / RFU, ARID1A / Fold change vs veh, ARID1A / RFU, ZNF146 / Fold change vs veh, ZNF146 / RFU, ZNF330 / Fold change vs veh, ZNF330 / RFU, GPN3 / Fold change vs veh, GPN3 / RFU, C9orf123 / Fold change vs veh, C9orf123 / RFU, N4BP2L2 / Fold change vs veh, N4BP2L2 / RFU, ARFIP1 / Fold change vs veh, ARFIP1 / RFU, FAM179B / Fold change vs veh, FAM179B / RFU, BCL10 / Fold change vs veh, BCL10 / RFU, UHRF1BP1L / Fold change vs veh, UHRF1BP1L / RFU, BET1 / Fold change vs veh, BET1 / RFU, CNOT2 / Fold change vs veh, CNOT2 / RFU, ZNF268 / Fold change vs veh, ZNF268 / Fold change vs veh, ZNF507 / RFU, DGCR2 / Fold change vs veh, DGCR2 / RFU, WDSUB1 / Fold change vs veh, WDSUB1 / Fold change vs veh, HSP90B1 /// MIR3652 / RFU, ADSS / Fold change vs veh, ADSS / RFU, GK / Fold change vs veh, GK / RFU, ZNF148 / Fold change vs veh, ZNF148 / RFU, TAF9 / Fold change vs veh, TAF9 / RFU, SLC1A5 / Fold change vs veh, SLC1A5 / RFU, SLMO2 / Fold change vs veh, SLMO2 / RFU, ABCC4 / Fold change vs veh, ABCC4 / RFU, LOC101060439 /// RAP1B / Fold change vs veh, LOC101060439 /// RAP1B / RFU, RFX7 / Fold change vs veh, RFX7 / RFU, GTPBP10 / Fold change vs veh, GTPBP10 / RFU, CNEP1R1 / Fold change vs veh, CNEP1R1 / RFU, BIVM-ERCC5 /// ERCC5 / Fold change vs veh, BIVM-ERCC5 /// ERCC5 / RFU, ILF3 / Fold change vs veh, ILF3 / RFU 11762660_at / Fold change /veh 11762660_at / RFU VCAN (11757783_s_at) / Fold change /veh VCAN (11757783_s_at) / RFU DDX43 (11728927_at) / Fold change /veh DDX43 (11728927_at) / RFU KRT8 (11758188_x_at) / Fold change /veh KRT8 (11758188_x_at) / RFU NKD1 (11759106_at) / Fold change /veh NKD1 (11759106_at) / RFU SRD5A1 (11742802_a_at) / Fold change /veh SRD5A1 (11742802_a_at) / RFU TPSAB1 /// TPSB2 (11721975_s_at) / Fold change /veh TPSAB1 /// TPSB2 (11721975_s_at) / RFU GSTM3 (11746129_a_at) / Fold change /veh GSTM3 (11746129_a_at) / RFU IL23R (11737362_x_at) / Fold change /veh IL23R (11737362_x_at) / RFU TMEM51 (11727254_a_at) / Fold change /veh TMEM51 (11727254_a_at) / RFU PIWIL2 (11732686_x_at) / Fold change /veh PIWIL2 (11732686_x_at) / RFU ORM1 (11744905_x_at) / Fold change /veh ORM1 (11744905_x_at) / RFU CCDC152 (11743942_at) / Fold change /veh CCDC152 (11743942_at) / RFU ECM1 (11717891_a_at) / Fold change /veh ECM1 (11717891_a_at) / RFU IL23R (11748794_a_at) / Fold change /veh IL23R (11748794_a_at) / RFU TNFAIP8L3 (11732012_x_at) / Fold change /veh TNFAIP8L3 (11732012_x_at) / RFU MBOAT4 (11741988_at) / Fold change /veh MBOAT4 (11741988_at) / RFU 11764193_at / Fold change /veh 11764193_at / RFU TMEM53 (11763286_at) / Fold change /veh TMEM53 (11763286_at) / RFU MAGEB2 (11727129_at) / Fold change /veh MAGEB2 (11727129_at) / RFU TMEM200A (11744735_a_at) / Fold change /veh TMEM200A (11744735_a_at) / RFU CCDC152 (11751479_a_at) / Fold change /veh CCDC152 (11751479_a_at) / RFU FAM211A (11726209_a_at) / Fold change /veh FAM211A (11726209_a_at) / RFU RGS16 (11746705_a_at) / Fold change /veh RGS16 (11746705_a_at) / RFU VCAN (11755009_s_at) / Fold change /veh VCAN (11755009_s_at) / RFU RHOB (11743442_s_at) / Fold change /veh RHOB (11743442_s_at) / RFU RGS16 (11720943_a_at) / Fold change /veh RGS16 (11720943_a_at) / RFU RGS16 (11720944_at) / Fold change /veh RGS16 (11720944_at) / RFU, VPS4B / Fold change vs veh, VPS4B / RFU, CREB1 / Fold change vs veh, CREB1 / RFU, DNAJC13 / Fold change vs veh, DNAJC13 / RFU, GNAQ / Fold change vs veh, GNAQ / RFU, CDK5R1 / Fold change vs veh, CDK5R1 / RFU, ZRANB3 / Fold change vs veh, ZRANB3 / RFU, CUL4A / Fold change vs veh, CUL4A / RFU, CCNY / Fold change vs veh, CCNY / RFU, UFL1 / Fold change vs veh, UFL1 / RFU, COG3 / Fold change vs veh, COG3 / RFU, DIAPH2 / Fold change vs veh, DIAPH2 / RFU, SKA2 / Fold change vs veh, SKA2 / RFU, AFF3 / Fold change vs veh, AFF3 / RFU, LMF1 / Fold change vs veh, LMF1 / RFU, IPO11 / Fold change vs veh, IPO11 / RFU, DFFB / Fold change vs veh, DFFB / RFU, FOXP1 / Fold change vs veh, FOXP1 / RFU, CARD8 / Fold change vs veh, CARD8 / RFU, STRN3 / Fold change vs veh, STRN3 / RFU, ADK / Fold change vs veh, ADK / RFU, RASSF2 / Fold change vs veh, RASSF2 / RFU, WIPF1 / Fold change vs veh, WIPF1 / RFU, LARP1B / Fold change vs veh, LARP1B / RFU, RASA1 / Fold change vs veh, RASA1 / RFU, RB1 / Fold change vs veh, RB1 / RFU, PPFIA1 / Fold change vs veh, PPFIA1 / RFU, MAT2A / Fold change vs veh, MAT2A / RFU, CCT5 / Fold change vs veh, CCT5 / RFU, WDR92 / Fold change vs veh, WDR92 / RFU, CUX1 / Fold change vs veh, CUX1 / RFU, TTC7A / Fold change vs veh, TTC7A / RFU, TMEM135 / Fold change vs veh, TMEM135 / RFU, DEPTOR / Fold change vs veh, DEPTOR / RFU, CPM / Fold change vs veh, CPM / RFU, DNAJB6 / Fold change vs veh, DNAJB6 / RFU, CACNA2D3 / Fold change vs veh, CACNA2D3 / RFU, DTX4 / Fold change vs veh, DTX4 / RFU, TFCP2 / Fold change vs veh, TFCP2 / RFU, GMCL1 /// GMCL1P1 / Fold change vs veh, GMCL1 /// GMCL1P1 / RFU, AEBP2 / Fold change vs veh, AEBP2 / RFU, SNHG1 /// SNORD22 /// SNORD25 /// SNORD26 /// SNORD27 /// SNORD28 /// SNORD29 /// SNORD31 / Fold change vs veh, SNHG1 /// SNORD22 /// SNORD25 /// SNORD26 /// SNORD27 /// SNORD28 /// SNORD29 /// SNORD31 / Fold change (Aza/veh), C12orf56 (ProbeSet 11735607_a_at) / Fold change (ACY-1035/veh), C12orf56 (ProbeSet 11735607_a_at) / Fold change (Aza/veh), FGFR1OP (ProbeSet 11751329_s_at) / Fold change (ACY-1035/veh), FGFR1OP (ProbeSet 11751329_s_at) / Fold change (Aza/veh), VPS36 (ProbeSet 11739960_a_at) / Fold change (ACY-1035/veh), VPS36 (ProbeSet 11739960_a_at) / RFU SYPL1 (11715823_x_at) / Fold change /veh SYPL1 (11715823_x_at) / RFU IGFBP7 (11715501_s_at) / Fold change /veh IGFBP7 (11715501_s_at) / RFU REEP3 (11722064_at) / Fold change /veh REEP3 (11722064_at) / RFU IGLL1 (11728026_x_at) / Fold change /veh IGLL1 (11728026_x_at): dose or concentration left out as unconfirmed
Conditions: ProbeSet 11720566_at; LIST D

## Nc1ccc(-c2cccs2)cc1NC(=O)c1ccc2c(c1)cc(C1CC1)n2CCN1CCOCC1 [ACY-1035]
  Fold change vs veh, BCAT1: 0.85
